For 38 compounds, Ki or IC50 activity class and melting point results are on record in US8802664B2 (Bioproject, priority 2010, dated 2014).

Structures can show the parent of a compound that is named as a salt.

One series addresses T1, human H4 receptor (Homo sapiens, UniProt Q9H3N8).
T1 construct: expressed in transfected cells
As to the kind of experiment: [3H]Histamine binding on membranes of CHO cells stably expressing human H4 receptor. The method, boiled down: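 CHO-hH4 membranes 20 μg/well; buffer 50 mM Tris/HCl, 0.5 mM EDTA, pH 7.4; NSB: 10 μM JNJ 7777120 (BP1.2404); GF/B filtration (PEI-presoaked), 3 ice-cold washes; scintillation counting.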

T1 sequence (Q9H3N8 whole entry): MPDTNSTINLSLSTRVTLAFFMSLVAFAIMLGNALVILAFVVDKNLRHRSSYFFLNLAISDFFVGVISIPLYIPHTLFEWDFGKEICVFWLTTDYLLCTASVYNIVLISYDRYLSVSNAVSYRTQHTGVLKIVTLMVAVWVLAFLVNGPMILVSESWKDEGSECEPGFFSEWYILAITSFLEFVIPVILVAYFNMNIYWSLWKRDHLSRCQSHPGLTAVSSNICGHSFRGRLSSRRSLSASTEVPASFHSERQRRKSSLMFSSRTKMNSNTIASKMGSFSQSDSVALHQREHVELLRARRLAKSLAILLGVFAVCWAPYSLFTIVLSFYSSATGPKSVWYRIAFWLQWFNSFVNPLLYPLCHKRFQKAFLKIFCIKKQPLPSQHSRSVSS

As usually defined, the melting point is the temperature of the solid-liquid transition. Compound `CN1CCC(OC(c2nc3ccccc3[nH]2)c2cc(Br)ccc2O)CC1` (stereo not shown) [Example 575] yielded a melting point of 145 °C. For the same compound, the Ki or IC50 activity class on human H4 receptor was < 30 nM.
Taken in the same sequence, the figures for `CN1CCC(OC(c2nc3cc(F)ccc3[nH]2)c2cc(C#CCCCN)ccc2F)CC1` (stereo not shown) [Example 558] were 90 °C and < 30 nM.
`CN1CCC(NC(c2cccc(C(F)(F)F)c2)c2nc3ccccc3[nH]2)CC1` (stereo not shown) [Example 59, [(1H-benzimidazol-2-yl)(3-trifluoromethylphenyl)methyl](1-methylpiperidin-4-yl)amine] had a melting point of 90 °C. Besides, at human H4 receptor, the Ki or IC50 activity class is < 30 nM.
`CN1CCC(OC(c2nc3ccccc3[nH]2)c2cc(Cl)cc(Cl)c2O)CC1` (stereo not shown) [Example 580] yielded a melting point of 161 °C. Also, on human H4 receptor, the Ki or IC50 activity class is < 1000 nM.
The corresponding values for `Cc1ccccc1C(OC1CCN(C)CC1)c1nc2ccccc2[nH]1` (stereo not shown) [Example 193, 2-[(1-methylpiperidin-4-yloxy)-o-tolyl-methyl]-1H-benzimidazole] are 190 °C and < 300 nM.
The compound `CN1CCC(OC(c2ccccc2)c2nc3cccc(N)c3[nH]2)CC1` (stereo not shown) [Example 200, 2-[(1-methylpiperidin-4-yloxy)phenyl-methyl]-3H-benzimidazol-4-ylamine] gave a melting point of 96.7 °C. The Ki or IC50 activity class at human H4 receptor was < 300 nM.
Taken in the same sequence, the figures for `CN1CCC(OC(c2cccc(C#CCCCNC(=N)NC(=O)OC(C)(C)C)c2)c2nc3ccccc3s2)CC1` (stereo not shown) [Example 339, N-tert-butoxycarbonyl-N′-(5-{3-[(benzothiazol-2-yl)(1-methylpiperidin-4-yloxy)methyl]phenyl}pent-5-ynyl)guanidine] were 125 °C and < 300 nM.
Taken in the same sequence, the figures for `CN1CCC(OC(c2cccc(-c3ccc(C(F)(F)F)cc3)c2)c2nc3ccccc3[nH]2)CC1` (stereo not shown) [Example 119, 2-[(1-methylpiperidin-4-yloxy)(4′-trifluoromethylbiphenyl-3-yl)methyl]-1H-benzimidazole] were 95 °C and < 300 nM.
Regarding `CN1CCC(OC(c2ccc3c(c2)OCCC3)c2nc3ccccc3[nH]2)CC1` (stereo not shown) [Example 543], the melting point is 128 °C. The Ki or IC50 activity class at human H4 receptor is < 30 nM.
The corresponding values for `CN1CCC(OC(c2nc3ccccc3[nH]2)c2ccc(OC(F)(F)F)cc2O)CC1` (stereo not shown) [Example 621] are 133 °C and < 30 nM.
On to `Cc1ccc(COc2cccc(C(NC3CCN(C)CC3)c3nc4ccccc4[nH]3)c2)cc1` (stereo not shown) [Example 130, {(1H-benzimidazol-2-yl)[3-(4-methylbenzyloxy)phenyl]methyl}(1-methylpiperidin-4-yl)amine], for which the melting point worked out at 87 °C. In addition, the Ki or IC50 activity class at human H4 receptor is < 300 nM.
In the case of `Cc1cc(F)c(C(OC2CCN(C)CC2)c2nc3ccccc3[nH]2)c(F)c1` (stereo not shown) [Example 523, 2-[(2,6-difluoro-4-methylphenyl)(1-methylpiperidin-4-yloxy)methyl]-1H-benzimidazole], the melting point is 211 °C. Besides, the Ki or IC50 activity class at human H4 receptor is < 30 nM.
The corresponding values for `CN1CCC(OC(c2cccc(-c3ccn[nH]3)c2)c2nc3ccccc3s2)CC1` (stereo not shown) [Example 260, 2-{(1-methylpiperidin-4-yloxy)[3-(2H-pyrazol-3-yl)phenyl]methyl}benzothiazole] are 90 °C and < 30 nM.
`Cc1cc(F)cc(C(OC2CCN(C)CC2)c2nc3ccccc3[nH]2)c1O` (stereo not shown) [Example 607] showed a melting point of 111 °C. For the same compound, at human H4 receptor, the Ki or IC50 activity class was < 1000 nM.
`CCCOc1cccc(C(OC2CCN(C)CC2)c2nc3ccccc3[nH]2)c1` (stereo not shown) [Example 49, 2-[(1-methylpiperidin-4-yloxy)(3-propoxyphenyl)methyl]-1H-benzimidazole] showed a melting point of 135 °C. At human H4 receptor, the Ki or IC50 activity class was < 1000 nM.
The corresponding values for `CN1CCC(NC(c2cccnc2)c2nc3ccccc3s2)CC1` (stereo not shown) [Example 52, (benzothiazol-2-ylpyridin-3-ylmethyl)(1-methylpiperidin-4-yl)amine] are 109 °C and < 1000 nM.
`Cc1ccc(C(OC2CCN(C)CC2)c2nc3ccccc3[nH]2)c(O)c1` (stereo not shown) [Example 574] had a melting point of 145 °C. Further, the Ki or IC50 activity class at human H4 receptor was < 30 nM.
In turn, `CN1CCC(NC(c2cccc(-c3ccco3)c2)c2nc3ccccc3[nH]2)CC1` (stereo not shown) [Example 144, [(1H-benzimidazol-2-yl)(3-furan-2-ylphenyl)methyl](1-methylpiperidin-4-yl)amine] registered a melting point of 108 °C. In addition, the Ki or IC50 activity class at human H4 receptor was < 30 nM.
Regarding `CN1CCC(OC(c2cccc(-c3ccc(OC(F)(F)F)cc3)c2)c2nc3ccccc3[nH]2)CC1` (stereo not shown) [Example 182, 2-[(1-methylpiperidin-4-yloxy)(4′-trifluoromethoxybiphenyl-3-yl)methyl]-1H-benzimidazole], the melting point is 90 °C. For the same compound, the Ki or IC50 activity class at human H4 receptor was < 30 nM.
`CCCOc1ccc(O)c(C(OC2CCN(C)CC2)c2nc3ccccc3[nH]2)c1` (stereo not shown) [Example 603]: the melting point turned out to be 120 °C. The Ki or IC50 activity class at human H4 receptor was < 300 nM.
For the compound `CN1CCC(OC(c2cccc(OCCCCCN)c2)c2nc3ccccc3[nH]2)CC1` (stereo not shown) (as salt: oxalate) [Example 400, 5-{3-[(1H-benzimidazol-2-yl)(1-methylpiperidin-4-yloxy)methyl]phenoxy}pentylamine], the melting point was found to be 111 °C.
The compound `CN1CCC(OC(c2cccc(SCCCCN)c2)c2nc3cc(F)c(F)cc3[nH]2)CC1` (stereo not shown) (as salt: oxalate) [Example 495] showed a melting point of 180 °C.
Take `CN1CCC(OC(c2cccc(N3CCC(O)C3)c2)c2nc3ccccc3s2)CC1` (stereo not shown) (as salt: oxalate) [Example 407, 1-{3-[benzothiazol-2-yl(1-methylpiperidin-4-yloxy)methyl]phenyl}pyrrolidin-3-ol]: the melting point was 106 °C.
Take `CN1CCC(OC(c2ccc(F)cc2)c2nc3ccccc3s2)CC1` (stereo not shown) (as salt: oxalate) [Example 3, 2-[(4-fluorophenyl)(1-methylpiperidin-4-yloxy)methyl]benzothiazole]: the melting point was determined as 192 °C.
Same read-out and setting: the same measure for `CC(=O)OC1CCN(c2cccc(C(OC3CCN(C)CC3)c3nc4ccccc4s3)c2)CC1` (stereo not shown) (as salt: oxalate) [Example 413, acetic acid 1-{3-[benzothiazol-2-yl(1-methylpiperidin-4-yloxy)methyl]phenyl}piperidin-4-yl ester]: 74 °C.
Still for that read-out and setting: the same measure for `CN1CCC(OC(c2cccc(C(F)(F)F)c2)c2nc3ccccc3s2)CC1` (stereo not shown) (as salt: hydrochloride) [Example 31, 2-[(1-methylpiperidin-4-yloxy)(3-trifluoromethylphenyl)methyl]benzothiazole]: 61 °C.
Same read-out and setting: the same measure for `CCCCCOc1cccc(C(NC2CCN(C)CC2)c2nc3ccccc3[nH]2)c1` (stereo not shown) (as salt: oxalate) [Example 95, [(1H-benzimidazol-2-yl)(3-pentyloxyphenyl)methyl](1-methylpiperidin-4-yl)amine]: 128 °C.
`CN1CCC(OC(c2cccc(C#CCCCn3cccn3)c2)c2nc3ccccc3[nH]2)CC1` (stereo not shown) (as salt: oxalate) [Example 410, 2-{(1-methylpiperidin-4-yloxy)[3-(5-pyrazol-1-yl-pent-1-ynyl)phenyl]methyl}-1H-benzimidazole] returned a melting point of 115 °C.
For the compound `CN1CCC(NC(c2cccc(OCC3CCCCC3)c2)c2nc3ccccc3s2)CC1` (stereo not shown) (as salt: oxalate) [Example 93, [benzothiazol-2-yl(3-cyclohexylmethoxyphenyl)methyl](1-methylpiperidin-4-yl)amine], the melting point turned out to be 98 °C.
Turning to `CSc1cccc(C(NC2CCN(C)CC2)c2nc3ccccc3s2)c1` (stereo not shown) (as salt: oxalate) [Example 111, [benzothiazol-2-yl(3-methylsulfanylphenyl)methyl](1-methylpiperidin-4-yl)amine], the melting point amounted to 85 °C.
Compound `CSCCOc1cccc(C(OC2CCN(C)CC2)c2nc3ccccc3s2)c1` (stereo not shown) (as salt: oxalate) [Example 250, 2-{(1-methylpiperidin-4-yloxy)[3-(2-methylsulfanyl-ethoxy)phenyl]methyl}benzothiazole] came in with a melting point of 89 °C.
The compound `CN1CCC(OC(c2cccc(OCCCF)c2)c2nc3ccccc3[nH]2)CC1` (stereo not shown) (as salt: oxalate) [Example 475] gave a melting point of 106 °C.
In the case of `CN1CCC(OC(c2cccc(OCC=CCO)c2)c2nc3ccccc3s2)CC1` (stereo not shown) (as salt: oxalate) [Example 422, 4-{3-[benzothiazol-2-yl(1-methylpiperidin-4-yloxy)methyl]phenoxy}but-2-en-1-ol], the melting point worked out at 73 °C.
`COc1cc(F)cc(C(OC2CCN(C)CC2)c2nc3ccccc3s2)c1` (stereo not shown) (as salt: oxalate) [Example 40, 2-[(3-fluoro-5-methoxyphenyl)(1-methylpiperidin-4-yloxy)methyl]benzothiazole] registered a melting point of 145 °C.
The same measure, in the same setting: the figure for `Cc1ccc2sc(C(OC3CCN(C)CC3)c3ccccc3)nc2c1` (stereo not shown) (as salt: oxalate) [Example 29, 5-methyl-2-[(1-methylpiperidin-4-yloxy)phenylmethyl]benzothiazole] is 175 °C; for `CN1CCC(OC(c2cccc(SCCCCCN)c2)c2nc3ccccc3[nH]2)CC1` (stereo not shown) (as salt: oxalate) [Example 381, 5-{3-[(1H-benzimidazol-2-yl)(1-methylpiperidin-4-yloxy)methyl]phenylsulfanyl}pentylamine] it is 140 °C; for `CN1CCC(OC(c2cccc(OCc3ccco3)c2)c2nc3ccccc3s2)CC1` (stereo not shown) (as salt: oxalate) [Example 267, 2-[[3-(furan-2-ylmethoxy)phenyl](1-methylpiperidin-4-yloxy)methyl]benzothiazole] it is 85 °C.
Same read-out and setting: the same measure for `Cc1cc(F)c(C(OC2CCN(C)CC2)c2nc3ccccc3o2)c(F)c1` (stereo not shown) (as salt: oxalate) [Example 536]: 114 °C.
